For 1 compound, Kd results are on record in article PMC8715907 (Chembiochem : a European journal of chemical biology, 2020).

The target of experiment [1] is T1, RECON (mRECON) (Mus musculus, UniProt Q8VC28).
T1 sequence (Q8VC28 1-323): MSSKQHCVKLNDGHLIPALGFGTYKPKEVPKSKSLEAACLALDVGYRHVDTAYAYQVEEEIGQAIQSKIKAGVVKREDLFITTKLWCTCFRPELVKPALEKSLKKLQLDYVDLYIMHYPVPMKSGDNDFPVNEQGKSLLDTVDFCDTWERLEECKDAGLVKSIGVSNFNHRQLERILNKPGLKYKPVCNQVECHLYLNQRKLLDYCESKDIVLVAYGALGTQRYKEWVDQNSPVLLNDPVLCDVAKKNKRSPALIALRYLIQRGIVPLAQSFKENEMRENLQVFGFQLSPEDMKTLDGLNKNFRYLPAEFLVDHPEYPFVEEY
Put plainly: DRaCALA. The experiment is classed as binding.

Experiment [2] deals with CnpB (Mycobacterium tuberculosis, UniProt P71615). Put plainly: DRaCALA, serial dilutions of protein. The experiment is classed as binding.
Chain of CnpB (P71615 whole entry): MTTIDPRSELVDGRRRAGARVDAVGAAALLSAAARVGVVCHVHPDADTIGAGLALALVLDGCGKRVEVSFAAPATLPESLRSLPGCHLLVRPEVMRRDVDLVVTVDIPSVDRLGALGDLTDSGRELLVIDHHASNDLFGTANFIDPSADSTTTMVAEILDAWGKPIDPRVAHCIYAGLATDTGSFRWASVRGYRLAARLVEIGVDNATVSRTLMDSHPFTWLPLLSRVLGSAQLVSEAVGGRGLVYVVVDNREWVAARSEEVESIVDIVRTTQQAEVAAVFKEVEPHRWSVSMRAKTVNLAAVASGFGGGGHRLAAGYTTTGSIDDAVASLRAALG

Each structure is given as a SMILES string.

As to `Nc1ncnc2c1ncn2[C@@H]1O[C@@H]2COP(=O)(O)O[C@H]3[C@@H](O)[C@H](n4cnc5c(N)ncnc54)O[C@@H]3COP(=O)(O)O[C@H]2[C@H]1O` [3’3’-c-di-AMP], the Kd in experiment [1] was 0.068 µM; in experiment [2] it was around 3 µM.
